These results are taken from patent publication US20230348424A1, “HETEROCYCLIC COMPOUNDS AND METHODS OF USE” (Schrödinger, Inc., priority 2022, published 2023).

Assay [1] deals with human SOS1 (Homo sapiens (Human), UniProt Q07889). In words: Surface Plasmon Resonance (SPR) SOS1 Binding Assay. As to conditions: biotinylated SOS1 (res. 564-1049), Biacore 8K, 25° C., kinetic or steady state fit, 1:1 binding; read-out: hSOS1 KD. The protocol: Binding to SOS1 was measured using a SPR assay with purified recombinant human SOS1 substrate (res. 564-1049 with N-terminal Avi tag; purified and biotinylated based on Hillig, et al., Proc Natl Acad Sci USA (2019); 116(7):2551-2560). SPR measurements were performed on a Biacore 8K SPR instrument (GE Healthcare, Sweden). Assays were performed at 25° C. using Series S SA sensor chips pre-coated with streptavidin (GE Healthcare, Cat. BR100531). Biotinylated SOS1 diluted in sample buffer (20 mM Tris HCI, 150 mM NaCl, 1 mM DTT, 0.05% TWEEN 20, 1 mM MgCh, pH 8.0) was captured to one flow cell of the chip to about 3,000 resonance units (RU) using sample buffer supplemented with 5% DMSO as a running buffer. Serial dilutions of the assayed compounds in the running buffer at 100, 50 or 0.5 µM were injected for 60 s at a flow rate of 30 µL/min and association phases were recorded. Dissociation of the samples was monitored for 600 s. Data processing was performed using Biacore Insight Software (Biacore, GE Healthcare). Sensorgrams recorded on a SA flow cell without captured protein were subtracted from sensorgrams recorded on the SOS1 surface. Blank injections of running buffer were used for double referencing and solvent correction was applied to all sample sensorgrams to correct for buffer mismatches. KDS were estimated using a kinetic or steady state, where applicable, fitting model describing a reversible equilibrium with 1:1 binding between SOS1 and the compound.
Chain of human SOS1 (Q07889 564-1049): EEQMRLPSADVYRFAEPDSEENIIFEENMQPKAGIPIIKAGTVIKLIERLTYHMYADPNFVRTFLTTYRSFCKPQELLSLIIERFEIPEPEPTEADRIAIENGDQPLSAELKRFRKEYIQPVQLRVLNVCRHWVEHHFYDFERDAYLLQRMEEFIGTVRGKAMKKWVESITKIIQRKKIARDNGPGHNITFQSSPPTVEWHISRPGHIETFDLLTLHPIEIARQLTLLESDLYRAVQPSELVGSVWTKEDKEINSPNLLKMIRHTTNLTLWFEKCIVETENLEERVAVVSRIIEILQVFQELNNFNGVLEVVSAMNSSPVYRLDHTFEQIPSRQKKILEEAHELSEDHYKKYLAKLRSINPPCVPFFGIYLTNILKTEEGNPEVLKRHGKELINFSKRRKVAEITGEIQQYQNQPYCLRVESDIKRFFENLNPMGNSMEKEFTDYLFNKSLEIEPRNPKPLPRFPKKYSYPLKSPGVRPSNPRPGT
On the technique in general: In SPR one partner is held on a chip, and binding of the other changes the refractive index at the surface.

For assay [2], the target named is SOS1:KRAS (G12C) interaction (Homo sapiens (Human), UniProt Q07889). In words: SOS1 KRas(G12C) FRET Assay. The format is binding. As to conditions: 0.5 nM His10-SOS1 (res. 564-1049), 2.5 nM GST-KRAS G12C (res. 1-169), 2 hrs at RT. An outline of the steps: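 GST-KRAS G12C (res. 1-169) at 2.5 nM and His10-SOS1 (res. 564-1049) at 0.5 nM, final, in PBS with 0.1% BSA, 5 mM MgCl2, 100 mM KF, 5 mM DTT and 0.5% DMSO. After 2 h at RT, FRET read at 665/615 nm and normalized to DMSO and no-SOS1 controls. IC50 by non-linear regression.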
Chain of SOS1:KRAS (G12C) interaction (Q07889 564-1049, stated change not applied): as the sequence (Q07889 564-1049) above

Molecules are shown by their SMILES. pIC50, pKd: −log10 of the molar value. A value given as a limit tells only on which side of the number the result lay.

Regarding `C[C@@H](NC(=O)c1cn(C2(C(F)F)CC2)c(=O)cc1NC1CCN(C)CC1)c1cccc(C(F)F)c1F` [Example 49, (R)-N-(1-(3-(difluoromethyl)-2-fluorophenyl)ethyl)-1-(1-(difluoromethyl)cyclopropyl)-4-((1-methylpiperidin-4-yl)amino)-6-oxo-1,6-dihydropyridine-3-carboxamide], the pKd (commonly the Kd on a negative log10 scale, so that one unit is a factor of ten) in assay [1] was 8.52. Besides, the pIC50 (in general, the IC50 on a negative log10 scale, so that one unit is a factor of ten) in assay [2] is 7.87. The matching figures for `C[C@@H](NC(=O)c1cn(C23CCC(CC2)C3)c(=O)cc1N[C@H]1[C@@H]2CN(C)C[C@@H]21)c1cccc(C(F)F)c1F` [Example 132, 1-(bicyclo[2.2.1]heptan-1-yl)-N-((R)-1-(3-(difluoromethyl)-2-fluorophenyl)ethyl)-4-(((1R,5S,6s)-3-methyl-3-azabicyclo[3.1.0]hexan-6-yl)amino)-6-oxo-1,6-dihydropyridine-3-carboxamide]: 8.10 and 7.99. On the same counts, the results for `C[C@@H](NC(=O)c1cn(C2CC2)c(=O)cc1N[C@H]1[C@@H]2CN(C)C[C@@H]21)c1cccc(C(F)F)c1F` [Example 101, 1-cyclopropyl-N-((R)-1-(3-(difluoromethyl)-2-fluorophenyl)ethyl)-4-(((1R,5S,6s)-3-methyl-3-azabicyclo[3.1.0]hexan-6-yl)amino)-6-oxo-1,6-dihydropyridine-3-carboxamide] are 7.96 and 7.62. On the same counts, the results for `Cc1c([C@@H](C)NC(=O)c2cn(C3(C(F)F)CC3)c(=O)cc2NC2CCN(C)CC2)cccc1C(F)(F)F` [Example 50, (R)-1-(1-(difluoromethyl)cyclopropyl)-N-(1-(2-methyl-3-(trifluoromethyl)phenyl)ethyl)-4-((1-methylpiperidin-4-yl)amino)-6-oxo-1,6-dihydropyridine-3-carboxamide] are 8.10 and 7.69.

In the case of `CO[C@@H]1CN(C)CC[C@H]1Nc1cc(=O)n(C2CCOCC2)cc1C(=O)N[C@H](C)c1cccc(C(F)(F)F)c1C` (single isomer, unassigned) [Example 24], the pKd in assay [1] was 7.57. The molecule further gave a pIC50 in assay [2] of 7.40. `C[C@@H](NC(=O)c1cn(C2CC3(CC3)C2)c(=O)cc1N[C@H]1[C@@H]2CN(C)C[C@@H]21)c1cccc(C(F)F)c1F` [Example 107, N-((R)-1-(3-(difluoromethyl)-2-fluorophenyl)ethyl)-4-(((1R,5S,6s)-3-methyl-3-azabicyclo[3.1.0]hexan-6-yl)amino)-6-oxo-1-(spiro[2.3]hexan-5-yl)-1,6-dihydropyridine-3-carboxamide]: the pKd in assay [1] was 8.52. In addition, the negative logarithm of the IC50 (pIC50) in assay [2] was 8.08. The matching figures for `CO[C@@H]1CN(C)CC[C@@H]1Nc1cc(=O)n(C2(C(F)F)CC2)cc1C(=O)N[C@H](C)c1cccc(C(F)F)c1F` [Example 154, N-((R)-1-(3-(difluoromethyl)-2-fluorophenyl)ethyl)-1-(1-(difluoromethyl)cyclopropyl)-4-(((3R,4S)-3-methoxy-1-methylpiperidin-4-yl)amino)-6-oxo-1,6-dihydropyridine-3-carboxamide]: 7.64 and 7.42. On the same counts, the results for `C[C@@H](NC(=O)c1cn(C2(C(F)F)CC2)c(=O)cc1NCCN(C)C)c1cccc(C(F)F)c1F` [Example 61, (R)-N-(1-(3-(difluoromethyl)-2-fluorophenyl)ethyl)-1-(1-(difluoromethyl)cyclopropyl)-4-((2-(dimethylamino)ethyl)amino)-6-oxo-1,6-dihydropyridine-3-carboxamide] are 7.47 and 7.19. The matching figures for `C[C@@H](NC(=O)c1cn([C@H]2CC23CCC3)c(=O)cc1N[C@H]1[C@@H]2CN(C)C[C@@H]21)c1cccc(C(F)F)c1F` (single isomer, unassigned) [Example 117]: 8.22 and 8.07. For the molecule `Cc1c([C@@H](C)NC(=O)c2cn(C3CCOCC3)c(=O)cc2NC2CCN(CCF)CC2)cccc1C(F)(F)F` [Example 16, (R)-4-((1-(2-fluoroethyl)piperidin-4-yl)amino)-N-(1-(2-methyl-3-(trifluoromethyl)phenyl)ethyl)-6-oxo-1-(tetrahydro-2H-pyran-4-yl)-1,6-dihydropyridine-3-carboxamide], the negative-log Kd (pKd) in assay [1] was 7.64. This molecule also showed a negative-log IC50 (pIC50) in assay [2] of 7.53.

In the case of `C[C@@H](NC(=O)c1cn(C2CC(F)(F)C2)c(=O)cc1N[C@H]1[C@@H]2CN(C)C[C@@H]21)c1cccc(C(F)F)c1F` [Example 100, 1-(3,3-difluorocyclobutyl)-N-((R)-1-(3-(difluoromethyl)-2-fluorophenyl)ethyl)-4-(((1R,5S,6s)-3-methyl-3-azabicyclo[3.1.0]hexan-6-yl)amino)-6-oxo-1,6-dihydropyridine-3-carboxamide], the pKd in assay [1] was 8.00. The molecule further gave a negative logarithm of the IC50 (pIC50) in assay [2] of 7.74. The matching figures for `C[C@@H](NC(=O)c1cn(C2(C(F)F)CC2)c(=O)cc1N[C@H]1[C@@H]2CN(C)C[C@@H]21)c1cccc(C(F)(F)F)c1F` [Example 130, 1-(1-(difluoromethyl)cyclopropyl)-N-((R)-1-(2-fluoro-3-(trifluoromethyl)phenyl)ethyl)-4-(((1R,5S,6s)-3-methyl-3-azabicyclo[3.1.0]hexan-6-yl)amino)-6-oxo-1,6-dihydropyridine-3-carboxamide]: 7.64 and 7.57.

Take `C[C@H](NC(=O)c1cn(C23CC(C2)C3)c(=O)cc1N[C@H]1[C@@H]2CN(C)C[C@@H]21)c1cccc(C#N)c1Cl` (single isomer, unassigned) [Example 178]: the negative logarithm of the IC50 (pIC50) in assay [2] was under 5.00. The same measure, in the same setting: as for `Cc1c([C@@H](C)NC(=O)c2cn(C3CCOCC3)c(=O)cc2N[C@H]2CC[C@]23CCCN(C)C3)cccc1C(F)(F)F` (single isomer, unassigned) [Example 298], the figure is 7.06. Same read-out and setting: next, `Cc1c([C@@H](C)NC(=O)c2cn(C3CCOCC3)c(=O)cc2N[C@H]2C[C@@H](N(C)C)C2)cccc1C(F)(F)F` [Example 27]: 7.66. On the same count and under the same terms, next, `C[C@@H](NC(=O)c1cn(C2(C(F)F)CC2)c(=O)cc1N[C@@H]1CCNC2(CC2)C1)c1cccc(C(F)F)c1F` (single isomer, unassigned) [Example 278]: 7.62. Regarding `C[C@@H](NC(=O)c1cn(C2(C(F)F)CC2)c(=O)cc1N[C@H]1CCN(C)C[C@H]1F)c1cccc(C(F)F)c1F` (single isomer, unassigned) [Example 68], the negative-log IC50 (pIC50) in assay [2] was 7.84. On the same count and under the same terms, next, `Cc1c([C@@H](C)NC(=O)c2cn(C3CCOCC3)c(=O)cc2N[C@@H]2C[C@@H]3CC[C@H]2N3C)cccc1C(F)(F)F` (single isomer, unassigned) [Example 37]: 7.48; `C[C@@H](NC(=O)c1cn(C2(CF)CC2)c(=O)cc1N[C@@H]1[C@@H]2CC[C@H]1CN(C)C2)c1cccc(C(F)F)c1F` (single isomer, unassigned) [Example 261]: 7.38. Still for that read-out and setting: as for `C[C@@H](NC(=O)c1cn(C2(C(F)F)CC2)c(=O)cc1NCC1(F)CN(C)C1)c1cccc(C(F)F)c1F` [Example 185, (R)-N-(1-(3-(difluoromethyl)-2-fluorophenyl)ethyl)-1-(1-(difluoromethyl)cyclopropyl)-4-(((3-fluoro-1-methylazetidin-3-yl)methyl)amino)-6-oxo-1,6-dihydropyridine-3-carboxamide], the figure is 7.51; as for `C[C@@H](NC(=O)c1cn(C23CC(C2)C3)c(=O)cc1N[C@H]1[C@@H]2C[C@H]1CN(C)C2)c1cccc(C(F)F)c1F` [Example 209, 1-(bicyclo[1.1.1]pentan-1-yl)-N-((R)-1-(3-(difluoromethyl)-2-fluorophenyl)ethyl)-4-(((1R,5S,6r)-3-methyl-3-azabicyclo[3.1.1]heptan-6-yl)amino)-6-oxo-1,6-dihydropyridine-3-carboxamide], 7.20; as for `C[C@@H](NC(=O)c1cn(C2CCC2)c(=O)cc1N[C@H]1[C@@H]2CN(C)C[C@@H]21)c1cccc(S(F)(F)(F)(F)F)c1` [Example 163, 1-cyclobutyl-4-(((1R,5S,6s)-3-methyl-3-azabicyclo[3.1.0]hexan-6-yl)amino)-6-oxo-N-((R)-1-(3-(pentafluoro-16-sulfaneyl)phenyl)ethyl)-1,6-dihydropyridine-3-carboxamide], 7.53. On to `C[C@@H](NC(=O)c1cn(C23CC(C2)C3)c(=O)cc1N[C@H]1[C@@H]2CN(C)C[C@@H]21)c1cccc(C#N)c1Cl` (single isomer, unassigned) [Example 177], for which the pIC50 in assay [2] was 7.25.
